Source: patent US8168232B2, “Formulations and methods of using nitric oxide mimetics in cancer treatment” (priority 2000, dated 2012)

Legend:
uPAR mRNA = test: Northern blot analysis of uPAR mRNA in MDA-MB-231 breast carcinoma cells; assay type: cell-based, human
[1] = system: MDA-MB-231 breast cancer cells; test: Colony formation assay for doxorubicin resistance, MDA-MB-231 monolayer; assay type: cell-based, human
Method: The resistance of MDA-MB-231 breast cancer cells to doxorubicin was determined following culture in 20% or 1% oxygen by counting the number of colonies formed. MDA-MB-231 cells were incubated in 1% O2 or 20% O2 for 24 hours. […] The cells were washed and then plated onto 35 mm plates at different dilutions. The cells were incubated for an additional 1-2 weeks in order to allow cell colonies to grow. At the end of the incubation period, the cells were fixed with Carnoy's fixative, stained with Crystal violet, rinsed and allowed to air dry. Colonies were counted visually. The surviving cells under each condition was determined by counting the number of colonies and was expressed as a fraction of the number of colonies that survived without doxorubicin exposure.
Using human MDA-MB-231 breast carcinoma cells in clonogenic assays, survival was determined following doxorubicin exposure and NO mimetic administration to both monolayer and spheroid cultures. […] However, these NO mimetics effectively attenuated the resistance to 200 μM doxorubicin associated with 3D culture by 90% and 30% respectively.

PAI-1 mRNA = test: Northern blot of PAI-1 mRNA in breast cancer cells; assay type: cell-based, human; conditions: SNP 10^−12 M, GTN 10^−11 M
Method: Following incubation, the total cellular RNA from the cells was isolated using the Gentra […] RNA Isolation Kit. The isolated RNA was subsequently separated by electrophoresis, and transferred to charged nylon membranes. The membranes were prehybridized at 42° C. for approximately 2 hours in a solution containing 50% formamide, 5×Denhardt's solution, 0.5% sodium dodecyl sulfate (SDS), 6×SSC (1×SSC=0.15 M NaCl, 15 mM sodium citrate, pH 7.0) and 100 μg/mL denatured salmon sperm DNA. They were then hybridized with a [^32P]-dCTP-labeled cDNA probe (uPAR or PAI-1) for approximately 24 hours at 42° C. in a solution composed of 6×SSC, 0.5% SDS, 100 μg/mL denatured salmon sperm DNA and 50% formamide, and containing a cDNA probe (uPAR or PAI-1) which was labeled with [^32P]-dCTP using a Pharmacia Oligolabelling kit. Following serial washes, the membrane was used to expose Dupont Reflection NEF film. After 1-4 days, the film was developed and analyzed. To correct for differences in the amount of RNA loaded in each sample, 28S rRNA was used.

[2] = system: soluble guanylyl cyclase (sGC) / cellular cGMP; test: cGMP ELISA (sGC activity) in MDA-MB-231 cells; assay type: cell-based, human
Method: The effects of hypoxia and NO-mimetic treatment on sGC levels were determined using Western Blot analysis. To determine sGC activity, cGMP levels were measured. Briefly, cells were extracted over ice in 1 mL of 6% trichloroacetic acid (BDH Laboratory Supplies, Poole, England). The homogenate was then centrifuged at 13,000 g for 10 min. The supernatant fraction was removed and extracted five times with 2 mL of water-saturated diethyl ether (BDH). The cGMP contained in this fraction was subsequently acetylated and quantitated using an enzyme-linked immuno-sorbent assay (ELISA) kit (STI—Signal Transduction Products, San Clemente, Calif.).
To determine the effect of hypoxia on cGMP levels, MDA-MB-231 breast carcinoma cells were incubated in 0.5% O2 for 6 hours in the presence of IBMX (500 μM).

[3] = system: prostate specific antigen (PSA); test: PSA levels in prostate cancer patients on low dose transdermal GTN; assay type: in vivo, human
Method: Patients with prostatic adenocarcinoma were selected for this study because the progression of this type of cancer correlates well with the plasma levels of prostate-specific antigen (PSA). Thus, the outcome of low dose NO mimetic therapy can be easily assessed by measuring PSA levels. […] Plasma PSA levels were measured via a commercially available immunoassay kit such as Immuno 1 (Bayer Corporation).
Methods: Patients with a previous history of prostatectomy that have experienced biochemical failure as per the ASTRO criteria (three successive rises in PSA), PSA<10 (units), stable with sub-clinical disease were included in the study after signing an informed consent. All patients were placed on treatment with continuous low dose transdermal nitroglycerin (˜0.03 mg/hr, 24 hours a day). Subjects returned to the study centre for monthly PSA measurements. Subjects were withdrawn from the study if there was evidence of disease progression or other intervening medical events.

[4] = system: MDA-MB-231 breast carcinoma spheroids; test: Clonogenic survival of MDA-MB-231 spheroids after doxorubicin; assay type: cell-based, human
Method: Following initial cell plating, spheroids formed for 24, 48, 72, 96 or 120 h. At each time point, spheroids were exposed to 200 μM of doxorubicin, then disaggregated and plated for assessment of colony formation (survival).
Spheroids were allowed to form for 72 h. DETA/NO was applied for the final 24 h of spheroid formation. Spheroids were then exposed to doxorubicin for 1 h, prior to disaggregation and plating for assessment of survival by clonogenic assay.
Using human MDA-MB-231 breast carcinoma cells in clonogenic assays, survival was determined following doxorubicin exposure and NO mimetic administration to both monolayer and spheroid cultures.

## O=[N+]([O-])OCC(CO[N+](=O)[O-])O[N+](=O)[O-] [GTN, glyceryl trinitrate]
uPAR mRNA; 1 μM of GTN
  effect of DFO on uPAR mRNA expression: not prevented
uPAR mRNA; 1% O2, SNP 10^−12 M, GTN 10^−11 M and 10^−10 M
  uPAR mRNA levels vs untreated hypoxic cells: significantly reduced
uPAR mRNA; GTN 1 μM
  hypoxic upregulation of uPAR mRNA expression: prevented
uPAR mRNA; GTN 1 μM with ODQ 0.5 μM
  effect of hypoxia on uPAR mRNA when ODQ also present: unable to block
uPAR mRNA; GTN (10^−10 M, 10^−6 M)
  inhibition of DFO (100 μM)-induced upregulation of uPAR: could not be inhibited
uPAR mRNA; GTN (a pM) as printed
  hypoxia-mediated increase in uPAR mRNA levels: inhibited
uPAR mRNA; combination of L-NMMA (0.5 mM) and GTN (0.1 nM), 20% O2
  uPAR transcript levels vs 20% O2 alone: no significant increase
[1]; hypoxic cells, 10^−6 M and 10^−10 M GTN
  doxorubicin survival rates vs untreated hypoxic cells: lower doxorubicin survival rates
[1]; monolayer cells in 1% O2, GTN 1 μM
  attenuation of hypoxia-induced resistance to doxorubicin: 50%
PAI-1 mRNA
  PAI-1 mRNA levels vs untreated hypoxic cells: significantly decreased
[2]; 0.5% O2, 2 hours, GTN (10^−10 M, 10^−6 M)
  effect on hypoxic reduction of sGC activity (cGMP ELISA): significantly prevented
[2]; GTN 1 μM co-incubation, 0.5% O2 6 hours, IBMX 500 μM
  effect of hypoxia on accumulated cGMP levels: prevented
[2]; GTN (1 mM) as printed, 6 hrs 0.5% O2, IBMX
  effect on hypoxic reduction in cGMP levels: completely prevented
[3]; GTN 0.033 mg/hour transdermal patches, recurrent prostatic adenocarcinoma, two patients, within two months
  plasma PSA levels: sharp decline
[3]; one patient, prostate intact, on anti-androgen therapy, GTN 0.03 mg/hour, about one month each
  PSA velocity, first two treatment episodes: reduction of PSA velocity
[3]; one patient, prostate intact, GTN 0.03 mg/hour, about one month
  PSA levels, third treatment episode: decrease in PSA levels
[3]; one patient, chronic transdermal GTN 0.03 mg/hour, radiation alone expected average twelve months
  time to PSA decrease with combined radiation therapy: within three months
[3]; transdermal ~0.03 mg/hr 24 hours a day, 5 or more months of therapy, decreased from 14%/month, post-prostatectomy biochemical failure
  mean PSA velocity on therapy: 5.4 %/month
[3]; transdermal ~0.03 mg/hr, 24 hours a day
  drug related adverse events: No patients experienced drug related adverse events
[4]; DETA 0.1 mM and 2 μM, GTN 0.1 nM and 1 μM
  survival of control (doxorubicin-untreated) cells: did not affect the survival
[4]; spheroids
  attenuation of resistance to 200 μM doxorubicin associated with 3D culture: 30%
